Earlier results as cited in publication PMC7318425 (Bioorganic & medicinal chemistry letters, 2019).

Test system: off-target kinases
Settings: KinomeScan, compared with ibrutinib

In the case of `Nc1ncnc2c1c(-c1ccc(Oc3ccccc3)cc1)nn2C1CCN(CCOCCOCC(=O)Nc2ccc3c(c2)C(=O)N(C2CCC(=O)NC2=O)C3=O)CC1` (stereo not shown) [MT802], the off-target kinase binding is listed as “binds fewer off-target kinases than ibrutinib”.
